From PubChem BioAssay AID2202554 (NIEHS Division of Translational Toxicology (DTT)) come the findings set out here.

The structures appear in SMILES notation. Results filed as inconclusive are left out. The source made the active and inactive calls. No rule for the calls is given here.

The series relates to S. typhimurium/E. coli reverse mutation, colony counts. The experiment in a line: Bacterial reverse mutation test (aka Ames test) summary data.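 Also: His-minus Salmonella and trp-minus E. coli WP2 uvrA pKM101 with or without liver S9.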 The text has this:
The Ames test uses bacteria cultures to determine whether a substance causes mutations. Because there is a significant overlap between substances that are mutagens and those that are carcinogens, a quick and inexpensive mutagenicity test is useful as an initial screening for possible carcinogens.
The Ames test relies on specific strains of S. typhimurium, namely: TA97, TA98, TA100, TA102, TA104, TA1535, TA1537, and TA1538. In addition to the S. typhimurium strains, the test may also use the E. coli strain WP2 uvrA pKM101.
Each of the bacterial strains has a mutation that prevents it from making an amino acid (a protein building block) required for normal cell growth. The S. typhimurium strains are unable to manufacture histidine; the E. coli strain cannot manufacture tryptophan. The tester strains will not be able to grow without amino acid supplementation, unless the mutated gene is changed back to the correct DNA sequence (reversion mutation). Being exposed to a mutagenic chemical increases the chance that the mutant gene will be restored to the correct sequence, which allows the bacteria to grow and form colonies. Each substance under study is tested in a variety of bacterial strains with different types of altered DNA sequences in order to provide a comprehensive assessment of the mutagenic potential of the substance.
Some non-mutagenic substances are converted to mutagenic substances when metabolized by the liver; in contrast, some substances that are mutagenic in their natural state are converted to non-mutagens by the liver. All substances are tested in their natural state, as well as in the presence of liver enzymes that can produce this metabolic conversion of the test substance. Extracts of rat, hamster, or mouse liver enzymes (S9 mix) are used for this purpose.
D. Preparing the Cultures
Multiple sets of cultures are prepared using a range of doses and different amounts of liver enzymes for each bacterial strain. Each culture is prepared in a test tube containing a suspension of one bacterial strain and either an S9 mix or plain buffer solution. Then the test substance is added. Negative control cultures are established using the same ingredients, but without the test substance. Positive control cultures are established using known mutagens active in particular bacterial strains and metabolic conditions (for example, with or without S9). Once prepared, each culture is incubated for 20 minutes at 37° C. Agar is then added to the cultures, and the contents of each tube are poured onto the surface of a Petri dish that was prepared with standard bacterial culture medium. The plates are then incubated, usually for two days.
Depending on the substance to be tested, the exposure and incubation processes may be modified. These variations include:
- Elimination of the 20-minute incubation period in a test tube prior to plating (this method is referred to as the standard plate incorporation method)
- Enzymatic reduction of azo and diazo substances (this process occurs in the intestine or liver of animals) using a chemical called flavin mononucleotide (FMN) or intestinal bacterial preparations from rats
- Testing in sealed chambers such as desiccators for volatile and gaseous chemicals.
To validate the test, a trained investigator compares the number of colonies on the chemical-treated plates to the number of colonies on the negative control plates. If the substance under test is mutagenic, the chemical-treated plates will have a much greater number of colonies than the negative control plates.
- A positive response is a reproducible, dose-related increase in mutant colonies in any single strain, with or without the addition of S9 metabolic enzymes. While there is no minimum percentage of increase required for a result to be considered positive, a twofold increase in mutant colonies in a treated plate is usually considered to be a positive (mutagenic) response.
[…]
Background: In the Ames test, an excess of revertant colonies over the control signals mutagenicity.

On to `CCc1c(Br)c(Br)c(Br)c(Br)c1Br`, for which the outcome is “inactive; negative”.
`NCCCCCCCCCCC(=O)O`: the outcome is “inactive; negative”.
The result for `Nc1ccccc1Cl` reads “inactive; negative”; that for `CNC(=S)N(C)C`, “inactive; negative”; that for `O=C1C=C(O)c2ccccc2C1=O`, “active; positive”.
Take `C[C@](N)(Cc1ccc(O)c(O)c1)C(=O)O`: the outcome is “inactive; negative”.
Take `CCC#N`: the outcome was “inactive; negative”.
In the case of `CN(C)c1ccc(N=NS(=O)(=O)O)cc1`, the outcome was “active; positive”.
Consider `O=C(O)/C=C/C(=O)O`, for which the outcome is “inactive; negative”.
The result for `Nc1c(Cl)c(Cl)nc(C(=O)O)c1Cl` reads “inactive; negative”; that for `O=C(O)c1ccc(C(=O)O)cc1`, “inactive; negative”; that for `Nc1cc([N+](=O)[O-])ccc1C(=O)O`, “active; positive”.
Consider `CCCC(C)=O`, for which the outcome was “inactive; negative”.
On to `N#[N+]c1ccc2c(S(=O)(=O)[O-])cccc2c1O`, for which the outcome is “active; positive”.
As for `C=CCOC(=O)CCCCCCCC`, the outcome was “inactive; negative”.
For `C[N+](C)=c1ccc2nc3ccc(N)cc3sc-2c1`, the outcome is “active; positive”.
Turning to `CCCCN`, the outcome is “inactive; negative”.
The same measure for `O=C([O-])c1ccccc1C1c2ccc([O-])c(Br)c2Oc2c1ccc(O)c2Br.[Zr+2]`: “inactive; negative”; for `CCNc1cccc(O)c1`: “active; positive”.
Take `O=C(O)COc1cc(Cl)c(Cl)cc1Cl`: the outcome is “inactive; negative”.
The same measure for `Nc1ccc2c(c1)C(=O)c1ccccc1C2=O`: “active; positive”.
The result for `Cc1cccc([N+](=O)[O-])c1C(=O)O` reads “active; positive”.
On to `CC(=O)C=CC1=C(C)CCCC1(C)C`, for which the outcome is “inactive; negative”.
In the case of `CC12CCC(CC1)C(C)(C)O2`, the outcome was “inactive; negative”.
The same measure for `CCN1CCOCC1`: “active; weakly positive”.
The result for `NC1CCC(CC2CCC(N)CC2)CC1` (stereo not drawn) reads “inactive; negative”; that for `Cc1cccc2c1ccc1ccccc12`, “active; positive”; that for `N#CC(Cl)Cl`, “active; positive”.
The result for `Cc1ccc(NC(N)=O)cc1` reads “inactive; negative”.
Turning to `CC(=O)Nc1ccc(N)cc1`, the outcome was “active; positive”.
The same measure for `CN(C)CCC(c1ccccc1)c1ccccn1` (stereo not drawn): “inactive; negative”.
The same measure for `C=CC(=O)OCC1CO1` (stereo not drawn): “active; positive”; for `Cc1noc(NS(=O)(=O)c2ccc(N)cc2)c1C`: “inactive; negative”; for `CCCCCN`: “inactive; negative”.
As to `NCP(=O)(O)O`, the outcome was “inactive; negative”.
On to `C=C(C#N)C(=O)OC`, for which the outcome was “active; positive”.
The same measure for `Cc1cc(O)c(C(C)(C)C)cc1Sc1cc(C(C)(C)C)c(O)cc1C`: “inactive; negative”; for `Clc1ccc(C(c2ccc(Cl)cc2)C(Cl)(Cl)Cl)cc1`: “inactive; negative”; for `C=COC(C)=O`: “inactive; negative”.
Turning to `CC(CCC(=O)O)(c1ccc(O)cc1)c1ccc(O)cc1`, the outcome is “inactive; negative”.
The result for `CCCCNS(=O)(=O)c1ccccc1` reads “inactive; negative”; that for `ClC1=C(Cl)[C@]2(Cl)[C@H]3[C@H]([C@@H]4C=C[C@H]3C4)[C@@]1(Cl)C2(Cl)Cl`, “inactive; negative”.
Consider `FC(F)(F)C(Cl)Br` (stereo not drawn), for which the outcome was “inactive; negative”.
The same measure for `COc1ccc(N=[N+]([O-])c2ccc(OC)cc2)cc1`: “active; positive”.
Consider `O.O.O.O.O.O.O=S(=O)([O-])[O-].[Ni+2]`, for which the outcome is “inactive; negative”.
The result for `C=CCOCC1CO1` (stereo not drawn) reads “active; positive”; that for `[Cd+2].[Cl-].[Cl-]`, “inactive; negative”; that for `Oc1ccccc1`, “inactive; negative”.
Take `C=CC(=O)NCO`: the outcome was “inactive; negative”.
The result for `CN(C)CCCN1c2ccccc2Sc2ccc(Cl)cc21` reads “inactive; negative”.
As to `CC(C)(C)C(=O)C1C(=O)c2ccccc2C1=O`, the outcome was “inactive; negative”.
The result for `O=P1(N(CCCl)CCCl)NCCCO1` (stereo not drawn) reads “active; positive”; that for `C1CNCCN1`, “inactive; negative”.
The same measure for `O=C1C=CCCC1`: “inactive; negative”; for `O=C/C=C/c1ccccc1`: “active; weakly positive”.
Take `CC(C)=CCC1CCCC1=O` (stereo not drawn): the outcome was “inactive; negative”.
In the case of `CCCCOc1ccc(C=Nc2ccc(CC)cc2)cc1`, the outcome is “active; weakly positive”.
The result for `ClC1=C(Cl)[C@]2(Cl)[C@@H]3[C@H]4C[C@H]([C@@H]5O[C@H]45)[C@@H]3[C@@]1(Cl)C2(Cl)Cl` reads “inactive; negative”; that for `CCCCCCCCCCCC(=O)O`, “inactive; negative”; that for `COC=O`, “inactive; negative”.
The result for `O=[N+]([O-])c1c(Cl)cc(Cl)cc1Cl` reads “inactive; negative”; that for `O=[N+]([O-])c1ccc(Cl)c(Cl)c1`, “active; positive”; that for `CCCCCCCCCCCCCCCCCC(O)=[OH+].O.[Cl][Cr][Cl].[Cl][Cr][Cl]`, “active; positive”.
The result for `FC(F)(F)c1ccccc1` reads “inactive; negative”.
As to `C=C(C)C(=O)OCC(C)C`, the outcome is “inactive; negative”.
Regarding `Nc1ncnc2c1ncn2[C@H]1CC[C@@H](CO)O1`, the outcome is “active; positive”.
The same measure for `BrCCBr`: “active; positive”; for `Clc1cccc(C(Cl)(Cl)Cl)n1`: “active; positive”; for `CCOC(N)=O`: “active; positive”.
The result for `CN(C)c1ccccc1` reads “inactive; negative”; that for `C=CC(C)=O`, “active; positive”; that for `NNC(N)=S`, “inactive; negative”.
The result for `O=[N+]([O-])c1cccc2cccc([N+](=O)[O-])c12` reads “active; positive”.
For the compound `O=C1NC(=O)c2cc([N+](=O)[O-])ccc21`, the outcome is “active; positive”.
As to `CC(=O)Nc1ccc(O)cc1`, the outcome was “inactive; negative”.
The result for `CCOCCOCCO` reads “inactive; negative”; that for `O=P(Oc1ccccc1)(Oc1ccccc1)Oc1ccccc1`, “inactive; negative”; that for `c1cc(OCC2CO2)cc(OCC2CO2)c1` (stereo not drawn), “active; positive”.
Turning to `O=C(O)C(Br)Br`, the outcome was “active; positive”.
The same measure for `Oc1c(Br)cc(Br)cc1Br`: “inactive; negative”.
The same measure for `O=C(O)c1cc(O)c2c(c1)C(=O)c1cccc(O)c1C2=O`: “active; positive”; for `O=Cc1ccccc1Cl`: “inactive; negative”.
The result for `Nc1ccccc1C(=O)OCC=Cc1ccccc1` reads “inactive; negative”; that for `BrC(Br)C(Br)(Br)Br`, “inactive; negative”; that for `CN(C)CCN(C)C`, “inactive; negative”.
For `CCCCCCc1ccc(-c2ccc(C#N)cc2)cc1`, the outcome is “inactive; negative”.
In the case of `OCC(Cl)CCl` (stereo not drawn), the outcome was “active; positive”.
On to `C=CC(=O)OCCCC`, for which the outcome was “inactive; negative”.
On to `CCC=CC#N`, for which the outcome is “inactive; negative”.
The same measure for `CCCCCCC[CH2][Sn]1([CH2]CCCCCCC)[O]C(=O)C=CC(=O)[O]1`: “inactive; negative”; for `Clc1ccc(Cl)c(Cl)c1Cl`: “inactive; negative”; for `[O]=[Zr]`: “inactive; negative”.
The result for `Nc1ccc([N+](=O)[O-])cc1[N+](=O)[O-]` reads “active; positive”.
